This note sets out measurements from PubChem BioAssay AID1671268.

For this assay, the target named is Receptor-type tyrosine-protein kinase FLT3 (Homo sapiens) (UniProt P36888). Briefly: FLT3 kinase inhibitors, dose response, biochemical, Z'-LYTE, FRET, protease-coupled, direct format (AID 1671268). To be noted: recombinant FLT3, Z'-LYTE FRET peptide phosphorylation.

The pIC50 is −log10 of the IC50, conventionally taken in molar units.

SMILES strings stand for the structures. pIC50: −log10 of the molar value.

Sequence of Receptor-type tyrosine-protein kinase FLT3 (Homo sapiens) (P36888 whole entry, looked up): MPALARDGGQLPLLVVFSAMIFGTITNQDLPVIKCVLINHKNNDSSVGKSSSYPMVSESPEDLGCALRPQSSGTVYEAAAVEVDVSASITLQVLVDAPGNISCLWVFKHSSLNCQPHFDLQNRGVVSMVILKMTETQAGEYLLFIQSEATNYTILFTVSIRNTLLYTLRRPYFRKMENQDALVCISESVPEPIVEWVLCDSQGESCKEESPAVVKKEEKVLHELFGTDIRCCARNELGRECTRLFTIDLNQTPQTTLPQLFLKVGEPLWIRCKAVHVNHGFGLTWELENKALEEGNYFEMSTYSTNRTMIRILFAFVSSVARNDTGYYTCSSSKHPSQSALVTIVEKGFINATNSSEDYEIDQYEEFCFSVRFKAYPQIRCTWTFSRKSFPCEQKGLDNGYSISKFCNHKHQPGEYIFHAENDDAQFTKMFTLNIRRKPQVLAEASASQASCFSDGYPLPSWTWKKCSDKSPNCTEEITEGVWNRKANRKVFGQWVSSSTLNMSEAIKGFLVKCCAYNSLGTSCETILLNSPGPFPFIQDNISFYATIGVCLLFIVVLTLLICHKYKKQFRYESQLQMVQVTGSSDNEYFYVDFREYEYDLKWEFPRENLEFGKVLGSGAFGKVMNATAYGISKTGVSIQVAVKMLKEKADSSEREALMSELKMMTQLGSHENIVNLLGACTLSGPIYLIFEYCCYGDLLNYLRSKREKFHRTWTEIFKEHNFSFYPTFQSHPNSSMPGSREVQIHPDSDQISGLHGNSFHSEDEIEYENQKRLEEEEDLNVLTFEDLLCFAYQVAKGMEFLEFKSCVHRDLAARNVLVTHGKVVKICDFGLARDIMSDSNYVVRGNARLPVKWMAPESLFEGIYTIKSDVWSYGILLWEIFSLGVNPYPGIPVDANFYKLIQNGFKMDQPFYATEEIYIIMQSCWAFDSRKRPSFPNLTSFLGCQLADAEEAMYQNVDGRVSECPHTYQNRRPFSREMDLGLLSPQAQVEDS

In the case of `COc1cc2ncnc(Nc3cccc(Cl)c3)c2cc1OC`, the pIC50 is 5.53.
